The record followed here is ChEMBL document CHEMBL4680211, “Synthesis and structure-activity relationship study of water-soluble carbazole sulfonamide derivatives as new anticancer agents” (Eur J Med Chem, 2020).

As usually defined, the IC50 is the point on the concentration scale where inhibition reaches its midpoint. In general, LD50 refers to the dose at which mortality reaches 50%. A word on the Cmax: it is the highest concentration seen after dosing. The term Tmax denotes the time from dosing to the highest level. The term solubility denotes the dissolved amount per volume that the medium holds.

Bounds are passed on as bounds.

The subject of data set [1] is HepG2. Put plainly: Antiproliferative activity against human HepG2 cells measured after 48 hrs by SRB assay. The class given is functional, cell-based. The following applies: Homo sapiens, HepG2, 48 h. (The SRB assay estimates cell density from bound dye.)
The nature of data set [2]: Toxicity in GFP-labelled human HepG2 cells xenografted BALB/c nude mouse assessed as change in animal weight at 10 mg/kg, iv qod for 29 days. The class given is organism-based. The conditions noted are these: in vivo, 696 h, time 29 day. In general terms: A xenograft is tissue or cells of one species grown in another, often human tumour cells in immunodeficient mice.
Data set [3] is described as follows: Toxicity in human HepG2 cells xenografted BALB/c nude mouse assessed as change in tumor weight at 10 mg/kg, iv qod for 14 to 29 days (reference value: 4.52 g). The class given is organism-based. The conditions noted are these: in vivo, time 14-29 day.
Data set [4] in a line: Acute toxicity in iv dosed Kunming mouse measured for 7 days. The conditions noted are these: in vivo, time 7 day. The class given is organism-based.
Data set [5] can be described thus: Acute toxicity in Kunming mouse assessed as survival at 100 mg/kg, iv measured for 7 days relative to control. The class given is organism-based. The following applies: in vivo, time 7 day.
The subject of data set [6] is HepG2. Description: Antitumor activity against human HepG2 cells xenografted in BALB/c nude mouse assessed as tumor growth inhibition at 5 mg/kg, iv qod for 14 to 29 days relative to control. The class given is functional. The conditions noted are these: time 14-29 day, read-out: TGI.
Data set [7] can be described thus: Acute toxicity in Kunming mouse assessed as survival at 80 mg/kg, iv measured for 7 days relative to control. The class given is organism-based. The following applies: in vivo, time 7 day.
In data set [8] the test system is HepG2. Put plainly: Antitumor activity against human HepG2 cells xenografted in BALB/c nude mouse assessed as tumor growth inhibition at 10 mg/kg, iv qod for 14 to 29 days relative to control. The class given is functional. The conditions noted are these: time 14-29 day, read-out: TGI.
The subject of data set [9] is HepG2. Put plainly: Antitumor activity against GFP-labelled human HepG2 cells xenografted in BALB/c nude mouse assessed as tumor growth inhibition at 10 mg/kg, iv qod for 29 days relative to control. The class given is functional. The conditions noted are these: 696 h, time 29 day, read-out: TGI.
Another data set has as its system Bel-7402. Description: Antiproliferative activity against human Bel-7402 cells measured after 48 hrs by SRB assay. The class given is functional, cell-based. The conditions noted are these: Homo sapiens, Bel-7402, 48 h.
The nature of data set [10]: Acute toxicity in Kunming mouse assessed as survival at 60 mg/kg, iv measured for 7 days relative to control. The class given is organism-based. The conditions noted are these: in vivo, time 7 day.
The subject of data set [11] is HepG2. Put plainly: Antitumor activity against human HepG2 cells xenografted in BALB/c nude mouse assessed as tumor volume at 10 mg/kg, iv qod for 14 to 29 days measured on day 1 (reference value: 154.04 +/- 3120). The class given is functional. The conditions noted are these: time 14-29 day.
A short description of data set [12]: Acute toxicity in Kunming mouse assessed as survival at 40 mg/kg, iv measured for 7 days relative to control. The class given is organism-based. The following applies: in vivo, time 7 day.
The subject of the next data set is MCF7. Description: Antiproliferative activity against human MCF7 cells measured after 48 hrs by SRB assay. The class given is functional, cell-based. The conditions noted are these: Homo sapiens, MCF7, 48 h.
Data set [13] relates to HepG2. Put plainly: Antitumor activity against human HepG2 cells xenografted in BALB/c nude mouse assessed as tumor volume at 10 mg/kg, iv qod for 14 to 29 days measured on day 29 (reference value: 2,838.93 +/- 737.40). The class given is functional. The conditions noted are these: time 14-29 day.
Data set [14] in a line: AUC (0 to last) in Sprague-Dawley rat assessed as N-(2,6-dimethoxypyridin-3-yl)-7-hydroxy-9-methyl-9H-carbazole-3-sulfonamide level at 2.5 mg/kg, iv. The class given is ADME, organism-based. The arrangement: route intravenous, time 0 - last, dose 2.5 mg/kg. The conditions noted are these: in vivo.
Data set [15] is described as follows: MRT (0 to last) in Sprague-Dawley rat assessed as N-(2,6-dimethoxypyridin-3-yl)-7-hydroxy-9-methyl-9H-carbazole-3-sulfonamide level at 2.5 mg/kg, iv. The following applies: in vivo. The class given is ADME, organism-based.
Data set [16] is described as follows: Terminal half life in Sprague-Dawley rat assessed as N-(2,6-dimethoxypyridin-3-yl)-7-hydroxy-9-methyl-9H-carbazole-3-sulfonamide level at 2.5 mg/kg, iv. The conditions noted are these: in vivo. The class given is ADME, organism-based.
Data set [17] is described as follows: Cmax in Sprague-Dawley rat assessed as N-(2,6-dimethoxypyridin-3-yl)-7-hydroxy-9-methyl-9H-carbazole-3-sulfonamide level at 2.5 mg/kg, iv. The class given is ADME, organism-based. On the set-up: route intravenous, dose 2.5 mg/kg. The following applies: in vivo.
Data set [18] is described as follows: Tmax in Sprague-Dawley rat assessed as N-(2,6-dimethoxypyridin-3-yl)-7-hydroxy-9-methyl-9H-carbazole-3-sulfonamide level at 2.5 mg/kg, iv. The class given is ADME, organism-based. The following applies: in vivo.
Data set [19] can be described thus: Toxicity in human MDA-MB-231 cells xenografted BALB/c nude mouse assessed as effect on body weight at 60 mg/kg, ip qod for 14 to 29 days measured every two days during compound dosing. The class given is organism-based. The following applies: in vivo, time 14-29 day.
A further data set concerns MDA-MB-231. Description: Antitumor activity against human MDA-MB-231 cells xenografted in BALB/c nude mouse assessed as reduction in tumor burden at 60 mg/kg, ip qod for 14 to 29 days relative to control. The class given is functional. The arrangement: scale not given: the % may be the effect or the level left. The conditions noted are these: time 14-29 day.
A short description of data set [20]: Acute toxicity in Kunming mouse assessed as survival at 25 mg/kg, iv measured for 7 days relative to control. The class given is organism-based. The following applies: in vivo, time 7 day.
Data set [21] in a line: Acute toxicity in Kunming mouse assessed as survival at 50 mg/kg, iv measured for 7 days relative to control. The class given is organism-based. The following applies: in vivo, time 7 day.
The nature of data set [22]: Acute toxicity in Kunming mouse assessed as survival at 75 mg/kg, iv measured for 7 days relative to control. The following applies: in vivo, time 7 day. The class given is organism-based.
Data set [23] in a line: Aqueous solubility of compound in water at pH 7.4 incubated at 20 degC by HPLC-UV analysis. The class given is physicochemical.
In data set [24] the test system is HepG2. Description: Antitumor activity against human HepG2 cells xenografted in BALB/c nude mouse assessed as reduction in tumor volume administered for 29 days by caliper method. The class given is functional, cell-based. The following applies: time 29.0 day.

Consider `COc1ccc(N(CCN2CCN(C)CC2)S(=O)(=O)c2ccc3c(c2)c2ccccc2n3C)c(OC)n1`, for which the IC50 with HepG2 [1] came out at 4.13 µM; in the data set with Bel-7402, 6.06 µM; in the data set with MCF7 it was 15 µM. Also, the Activity entry in data set [2] is “Non-Toxic”; in data set [3], 1.44 g; with HepG2 [11] it was 92.29 mm3; in the data set on HepG2 [13], 914.19 mm3. For the same molecule, the LD50 at 168 h in data set [4] worked out at 89.5 mg/kg. The survival at 168 h in data set [5] turned out to be 16.7%; in data set [7], 83.3%; in [10], 100%; in [12], 100%. In the data set on HepG2 [6], the inhibition in vivo at 5 mg/kg worked out at 33.3%. Also, the results for the inhibition in vivo at 10 mg/kg with HepG2 [8] and in the data set with HepG2 [9] were 48.3% and 60.2%, respectively.
With `COc1ccc(NS(=O)(=O)c2ccc3c(c2)c2ccc(O)cc2n3C)c(OC)n1`, the IC50 in the data set on HepG2 [1] stood at 0.012 µM; in the data set on Bel-7402 it was 0.056 µM; with MCF7, 0.014 µM. For the same molecule, in data set [14], the AUClast was 15.295 µg·h/mL. For the same molecule, the MRTlast in data set [15] stood at 1.27 h. The “beta t1/2” value in [16] was determined as 1.8 h. Further, in data set [17], the peak concentration (Cmax) is 22.333 µg/mL. In [18], the Tmax came out at 5 min.
With `COc1ccc(N(C(=O)CCN2CCCCC2)S(=O)(=O)c2ccc3c(c2)c2ccccc2n3C)c(OC)n1`, the IC50 in the data set with HepG2 [1] was 0.35 µM; in the data set on Bel-7402 it was 0.73 µM; in the data set on MCF7 it was 1.16 µM. The figures for the Activity result (in data set [19]; with MDA-MB-231) were “Non-Toxic” and 40.1%, respectively.
As to `COc1ccc(N(CCN(C)C)S(=O)(=O)c2ccc3c(c2)c2ccccc2n3C)c(OC)n1`, the IC50 in the data set with HepG2 [1] worked out at 1.46 µM; in the data set on Bel-7402, 5.32 µM; in the data set with MCF7, 5.33 µM. The survival at 168 h in data set [20] was determined as 100%; in data set [5], 0%; in data set [21] it was 83.3%; in data set [22] it was 66.7%. The Activity in [3] turned out to be 0.87 g; in the data set on HepG2 [11] it was 90.79 mm3; in the data set with HepG2 [13], 1322.82 mm3. This molecule also came in with an LD50 at 168 h in [4] of 71.9 mg/kg. In addition, in the data set on HepG2 [8], the inhibition in vivo at 10 mg/kg is 52.8%.
As to `COc1ccc(N(CCn2ccnc2)S(=O)(=O)c2ccc3c(c2)c2ccccc2n3C)c(OC)n1.Cl`, the concentration in solution in data set [23] (solubility) came to 21.5 mg/mL.
The same measure, in the same setting: with `COc1ccc(N(CCO)S(=O)(=O)c2ccc3c(c2)c2ccccc2n3C)c(OC)n1.Cl` the figure was 0.15 mg/mL; with `COc1ccc(N(CCCN2CCC3(CCN(C)CC3)C2)S(=O)(=O)c2ccc3c(c2)c2ccccc2n3C)c(OC)n1.Cl`, above 30 mg/mL.
In the case of `COc1ccc(N(CCOP(=O)(O)O)S(=O)(=O)c2ccc3c(c2)c2ccccc2n3C)c(OC)n1`, in the data set with HepG2 [24], the Activity result is “Dose-dependent effect”.
